From US20220117938A1, “COMBINATON THERAPY WITH A DON PRODRUG AND AN IMMUNE CHECKPOINT INHIBITOR” (DRACEN PHARMACEUTICALS, INC., priority 2019, published 2022)

Columns and labels:
[1] = system: MC38 tumors; experiment: Anti-tumor efficacy of Compound 1 and Compound 3 by IV and SC routes in the MC38 model (Example 9); type: in vivo, mice
Procedure: Female C57BL/6 mice were inoculated subcutaneously in the right flank with MC38 cells for tumor development. Six days after tumor inoculation, mice with tumor sizes ranging from 52-97 mm^3 (average tumor size 71 mm^3) were selected and assigned into 10 groups using stratified randomization with 8 mice per group based upon their tumor volumes. The treatments were started from the day of randomization (defined as D0), Group 1 was treated with Vehicle control, SC qd×5 days on (Mon-Fri)×4 cycles; Group 2 was treated with Compound 1, 1.4 mpk SC, qd×5 days on (Mon-Fri)×4 cycles; Group 3 was treated with Compound 1, 7 mpk IV, biw (Mon, Thu)×4 cycles; Group 4 was treated with Compound 1, 14 mpk IV, biw (Mon, Thu)×4 cycles; Group 5 was treated with Compound 1, 14 mpk IV, qw (Mon)×4 cycles; Group 6 was treated with Compound 1, 21 mpk IV, qw (Mon)×4 cycles; Group 7 was treated with Compound 3, 1 mpk SC, qd 5 days on (Mon-Fri)×4 cycles; Group 8 was treated with Compound 3, 3 mpk SC, qd 5 days on (Mon-Fri)×4 cycles; Group 9 was treated with Compound 3, 9 mpk SC, qd 5 days on (Mon-Fri)×4 cycles; and Group 10 was treated with Compound 3, 7 mpk IV, tiw (Mon, Wed, Fri)×4 cycles. The tumor sizes were measured three times per week during the treatment. Survival was monitored with tumor volume exceeding 2000 mm^3 as endpoint. The entire study was terminated on D44 after start of the treatment. All treatments were well-tolerated without any adverse effects or significant body weight loss.

[2] = system: CT26.WT tumors; experiment: Anti-tumor efficacy of Compound 1 in the CT26.WT model: schedule comparison (Example 5); type: in vivo, mice; details: for Mean Tumor Vol / TGI: Day 14; for Mean Tumor Vol / TGI / Cures / ILS: sc
Procedure: Female BALB/c mice were inoculated subcutaneously at right flank with CT26.WT cells for tumor development. Treatment started on day 6 after tumor inoculation when the tumor size reached 40-79 mm^3 (average tumor size 57 mm^3). Each group consisted of 8 tumor-bearing mice. The tumor sizes were measured three times per week during the treatment. The entire study was terminated on D57 after start of the treatment. Otherwise, the experimental methods and procedures are similar to those described in EXAMPLE 2B.

[3] = Group 2, 1.4 mpk SC qd Mon-Fri x4 cycles
[4] = Group 2, 1.4 mpk SC qd Mon-Fri x4 cycles, day 11
[5] = Group 3, 7 mpk IV biw x4 cycles
[6] = Group 3, 7 mpk IV biw x4 cycles, day 11
[7] = Group 4, 14 mpk IV biw x4 cycles
[8] = Group 4, 14 mpk IV biw x4 cycles, day 11
[9] = Group 5, 14 mpk IV qw x4 cycles
[10] = Group 5, 14 mpk IV qw x4 cycles, day 11
[11] = Group 6, 21 mpk IV qw x4 cycles
[12] = Group 6, 21 mpk IV qw x4 cycles, day 11
[13] = Group 2: 1.4 mpk 5-days ON 2-days OFF x4 cycles
[14] = Group 3: 1.4 mpk 5-days ON 2-days OFF x2 cycles followed by 3-days ON (Mon-Wed) 4-days OFF x2 cycles
[15] = Group 4: 1.4 mpk 5-days ON 2-days OFF x2 cycles followed by 3-days ON (Mon, Wed, Fri) 4-days OFF x2 cycles
[16] = Group 5: 2.33 mpk 3-days ON (Mon-Wed) 4-days OFF x4 cycles
[17] = Group 6: 2.33 mpk 3-days ON (Mon, Wed, Fri) 4-days OFF x4 cycles
[18] = Group 7: 0.5 mpk 5-days ON 2-days OFF x4 cycles
[19] = Group 8: 0.83 mpk 3-days ON (Mon-Wed) 4-days OFF x4 cycles
[20] = Group 9: 0.83 mpk 3-days ON (Mon, Wed, Fri) 4-days OFF x4 cycles

Compound: CC(=O)N[C@@H](Cc1c[nH]c2ccccc12)C(=O)N[C@@H](CCC(=O)C=[N+]=[N-])C(=O)OC(C)C [Compound 1, Isopropyl (S)-2-((S)-2-acetamido-3-(1H-indol-3-yl)propanamido)-6-diazo-5-oxohexanoate]
- ILS [1, 3]: 170.0%
- MST [1, 3]: 40.5 days
- RTV at day 11 [1, 3]: 0.63 ± 0.11
- Tumor Size at day 11 [1, 3]: 43 ± 6 mm^3
- Tumor volume ([1]; Group 2, 1.4 mpk SC qd Mon-Fri x4 cycles, day 0): 71 ± 5 mm^3
- Tumor volume ([1]; Group 2, 1.4 mpk SC qd Mon-Fri x4 cycles, day 2): 64 ± 5 mm^3
- Tumor volume ([1]; Group 2, 1.4 mpk SC qd Mon-Fri x4 cycles, day 4): 68 ± 10 mm^3
- Tumor volume ([1]; Group 2, 1.4 mpk SC qd Mon-Fri x4 cycles, day 7): 61 ± 5 mm^3
- Tumor volume ([1]; Group 2, 1.4 mpk SC qd Mon-Fri x4 cycles, day 9): 39 ± 3 mm^3
- T/C [1, 4]: 3.86%
- TGI [1, 4]: 102.69%
- Tumor volume [1, 4]: 43 ± 6 mm^3
- Tumor volume ([1]; Group 2, 1.4 mpk SC qd Mon-Fri x4 cycles, day 14): 51 ± 9 mm^3
- Tumor volume ([1]; Group 2, 1.4 mpk SC qd Mon-Fri x4 cycles, day 16): 50 ± 7 mm^3
- Tumor volume ([1]; Group 2, 1.4 mpk SC qd Mon-Fri x4 cycles, day 18): 52 ± 9 mm^3
- Tumor volume ([1]; Group 2, 1.4 mpk SC qd Mon-Fri x4 cycles, day 21): 44 ± 7 mm^3
- Tumor volume ([1]; Group 2, 1.4 mpk SC qd Mon-Fri x4 cycles, day 23): 41 ± 9 mm^3
- Tumor volume ([1]; Group 2, 1.4 mpk SC qd Mon-Fri x4 cycles, day 25): 42 ± 11 mm^3
- Tumor volume ([1]; Group 2, 1.4 mpk SC qd Mon-Fri x4 cycles, day 28): 55 ± 14 mm^3
- Tumor volume ([1]; Group 2, 1.4 mpk SC qd Mon-Fri x4 cycles, day 30): 140 ± 50 mm^3
- Tumor volume ([1]; Group 2, 1.4 mpk SC qd Mon-Fri x4 cycles, day 32): 303 ± 119 mm^3
- Tumor volume ([1]; Group 2, 1.4 mpk SC qd Mon-Fri x4 cycles, day 35): 509 ± 166 mm^3
- Tumor volume ([1]; Group 2, 1.4 mpk SC qd Mon-Fri x4 cycles, day 37): 896 ± 217 mm^3
- ILS [1, 5]: 123.3%
- MST [1, 5]: 33.5 days
- RTV at day 11 [1, 5]: 1.44 ± 0.20
- Tumor Size at day 11 [1, 5]: 99 ± 11 mm^3
- Tumor volume ([1]; Group 3, 7 mpk IV biw x4 cycles, day 0): 71 ± 4 mm^3
- Tumor volume ([1]; Group 3, 7 mpk IV biw x4 cycles, day 2): 61 ± 9 mm^3
- Tumor volume ([1]; Group 3, 7 mpk IV biw x4 cycles, day 4): 64 ± 7 mm^3
- Tumor volume ([1]; Group 3, 7 mpk IV biw x4 cycles, day 7): 98 ± 8 mm^3
- Tumor volume ([1]; Group 3, 7 mpk IV biw x4 cycles, day 9): 79 ± 7 mm^3
- T/C [1, 6]: 8.87%
- TGI [1, 6]: 97.42%
- Tumor volume [1, 6]: 99 ± 11 mm^3
- Tumor volume ([1]; Group 3, 7 mpk IV biw x4 cycles, day 14): 140 ± 16 mm^3
- Tumor volume ([1]; Group 3, 7 mpk IV biw x4 cycles, day 16): 134 ± 10 mm^3
- Tumor volume ([1]; Group 3, 7 mpk IV biw x4 cycles, day 18): 133 ± 15 mm^3
- Tumor volume ([1]; Group 3, 7 mpk IV biw x4 cycles, day 21): 236 ± 36 mm^3
- Tumor volume ([1]; Group 3, 7 mpk IV biw x4 cycles, day 23): 317 ± 59 mm^3
- Tumor volume ([1]; Group 3, 7 mpk IV biw x4 cycles, day 25): 337 ± 56 mm^3
- Tumor volume ([1]; Group 3, 7 mpk IV biw x4 cycles, day 28): 602 ± 144 mm^3
- Tumor volume ([1]; Group 3, 7 mpk IV biw x4 cycles, day 30): 1181 ± 278 mm^3
- ILS [1, 7]: 133.3%
- MST [1, 7]: 35 days
- RTV at day 11 [1, 7]: 1.06 ± 0.22
- Tumor Size at day 11 [1, 7]: 69 ± 11 mm^3
- Tumor volume ([1]; Group 4, 14 mpk IV biw x4 cycles, day 0): 72 ± 6 mm^3
- Tumor volume ([1]; Group 4, 14 mpk IV biw x4 cycles, day 2): 80 ± 12 mm^3
- Tumor volume ([1]; Group 4, 14 mpk IV biw x4 cycles, day 4): 70 ± 8 mm^3
- Tumor volume ([1]; Group 4, 14 mpk IV biw x4 cycles, day 7): 86 ± 13 mm^3
- Tumor volume ([1]; Group 4, 14 mpk IV biw x4 cycles, day 9): 70 ± 11 mm^3
- T/C [1, 8]: 6.51%
- TGI [1, 8]: 100.28%
- Tumor volume [1, 8]: 69 ± 11 mm^3
- Tumor volume ([1]; Group 4, 14 mpk IV biw x4 cycles, day 14): 95 ± 14 mm^3
- Tumor volume ([1]; Group 4, 14 mpk IV biw x4 cycles, day 16): 107 ± 25 mm^3
- Tumor volume ([1]; Group 4, 14 mpk IV biw x4 cycles, day 18): 96 ± 22 mm^3
- Tumor volume ([1]; Group 4, 14 mpk IV biw x4 cycles, day 21): 144 ± 45 mm^3
- Tumor volume ([1]; Group 4, 14 mpk IV biw x4 cycles, day 23): 163 ± 41 mm^3
- Tumor volume ([1]; Group 4, 14 mpk IV biw x4 cycles, day 25): 167 ± 47 mm^3
- Tumor volume ([1]; Group 4, 14 mpk IV biw x4 cycles, day 28): 261 ± 54 mm^3
- Tumor volume ([1]; Group 4, 14 mpk IV biw x4 cycles, day 30): 562 ± 124 mm^3
- Tumor volume ([1]; Group 4, 14 mpk IV biw x4 cycles, day 32): 967 ± 171 mm^3
- Tumor volume ([1]; Group 4, 14 mpk IV biw x4 cycles, day 35): 1884 ± 337 mm^3
- ILS [1, 9]: 86.7%
- MST [1, 9]: 28 days
- RTV at day 11 [1, 9]: 2.06 ± 0.40
- Tumor Size at day 11 [1, 9]: 134 ± 21 mm^3
- Tumor volume ([1]; Group 5, 14 mpk IV qw x4 cycles, day 0): 70 ± 4 mm^3
- Tumor volume ([1]; Group 5, 14 mpk IV qw x4 cycles, day 2): 67 ± 5 mm^3
- Tumor volume ([1]; Group 5, 14 mpk IV qw x4 cycles, day 4): 77 ± 12 mm^3
- Tumor volume ([1]; Group 5, 14 mpk IV qw x4 cycles, day 7): 152 ± 20 mm^3
- Tumor volume ([1]; Group 5, 14 mpk IV qw x4 cycles, day 9): 105 ± 12 mm^3
- T/C [1, 10]: 12.69%
- TGI [1, 10]: 93.98%
- Tumor volume [1, 10]: 134 ± 21 mm^3
- Tumor volume ([1]; Group 5, 14 mpk IV qw x4 cycles, day 14): 312 ± 56 mm^3
- ILS [1, 11]: 60.0%
- MST [1, 11]: 24 days
- RTV at day 11 [1, 11]: 2.86 ± 0.39
- Tumor Size at day 11 [1, 11]: 206 ± 33 mm^3
- Tumor volume ([1]; Group 6, 21 mpk IV qw x4 cycles, day 0): 71 ± 4 mm^3
- Tumor volume ([1]; Group 6, 21 mpk IV qw x4 cycles, day 2): 79 ± 10 mm^3
- Tumor volume ([1]; Group 6, 21 mpk IV qw x4 cycles, day 4): 80 ± 9 mm^3
- Tumor volume ([1]; Group 6, 21 mpk IV qw x4 cycles, day 7): 182 ± 24 mm^3
- Tumor volume ([1]; Group 6, 21 mpk IV qw x4 cycles, day 9): 164 ± 21 mm^3
- T/C [1, 12]: 17.57%
- TGI [1, 12]: 87.26%
- Tumor volume [1, 12]: 206 ± 33 mm^3
- Tumor volume ([1]; Group 6, 21 mpk IV qw x4 cycles, day 14): 440 ± 87 mm^3
- Tumor volume ([1]; Group 6, 21 mpk IV qw x4 cycles, day 16): 515 ± 84 mm^3
- Tumor volume ([1]; Group 6, 21 mpk IV qw x4 cycles, day 18): 740 ± 120 mm^3
- Tumor volume ([1]; Group 6, 21 mpk IV qw x4 cycles, day 21): 1005 ± 174 mm^3
- Tumor volume ([1]; Group 6, 21 mpk IV qw x4 cycles, day 23): 1683 ± 302 mm^3
- ILS (maximum median survival) ([2]; 1.4 mg/kg 5-day ON 2-day OFF): 106%
- Long term cure ([2]; 1.4 mg/kg 5-day ON 2-day OFF, animals cured/animals in group): 1/8
- Tumor growth inhibition, schedule switch compared to 1.4 mg/kg 5-day ON 2-day OFF×4 cycles ([2]; 1.4 mg/kg, switching from 5-day ON 2-day OFF to 3-day ON 4-day OFF on Day 14): reduced tumor growth inhibition
- Efficacy and survival benefit, Mon-Wed compared with Mon, Wed, Fri dosing ([2]; 3-day ON 4-day OFF schedules, equivalent total dose per cycle): equivalent efficacy and survival benefit
- Tumor growth inhibition and survival benefit compared to 3-day ON 4-day OFF schedules ([2]; 5-day ON 2-day OFF schedule, equivalent total dose per cycle, 4 weeks): superior tumor growth inhibition and survival benefit
- Mean Tumor Vol [2, 13]: 163 ± 25 mm^3
- TGI [2, 13]: 92%
- Mean Tumor Vol [2, 14]: 155 ± 27 mm^3
- TGI [2, 14]: 93%
- Mean Tumor Vol [2, 15]: 164 ± 12 mm^3
- TGI [2, 15]: 92%
- Mean Tumor Vol [2, 16]: 169 ± 32 mm^3
- TGI [2, 16]: 92%
- Mean Tumor Vol [2, 17]: 240 ± 45 mm^3
- TGI [2, 17]: 87%
- Mean Tumor Vol [2, 18]: 302 ± 41 mm^3
- TGI [2, 18]: 82%
- Mean Tumor Vol [2, 19]: 484 ± 87 mm^3
- TGI [2, 19]: 69%
- Mean Tumor Vol [2, 20]: 488 ± 74 mm^3
- TGI [2, 20]: 68%
- Cures [2, 13]: 12.5%
- ILS [2, 13]: 106%
- Cures [2, 14]: 0%
- ILS [2, 14]: 67%
- Cures [2, 15]: 12.5%
- ILS [2, 15]: 94%
- Cures [2, 16]: 0%
- ILS [2, 16]: 86%
- Cures [2, 17]: 0%
- ILS [2, 17]: 94%
- Cures [2, 18]: 0%
- ILS [2, 18]: 67%
- Cures [2, 19]: 0%
- ILS [2, 19]: 67%
- Cures [2, 20]: 0%
- ILS [2, 20]: 39%
